Measurements as given in US20230257415A1, “COMPOUNDS FOR TREATING CNS DISORDERS” (SAGE THERAPEUTICS, INC., priority 2019, published 2023).

Molecular target: GABAA receptor
Assay: [35S]-TBPS binding assay, rat brain cortical membranes, in the presence of GABA
Conditions: inhibition of 3 nM [35S]-TBPS binding, 5 mM GABA, 90 min, room temp
Description: [35S]-t-Butylbicyclophosphorothionate (TBPS) binding assays using rat brain cortical membranes in the presence of 5 mM GABA has been described (Gee et al, J. Pharmacol. Exp. Ther. 1987, 241, 346-353; Hawkinson et al, Mol. Pharmacol. 1994, 46, 977-985; Lewin, A.H et al., Mol. Pharmacol. 1989, 35, 189-194).
Briefly, cortices are rapidly removed following decapitation of carbon dioxide-anesthetized Sprague-Dawley rats (200-250 g). The cortices are homogenized in 10 volumes of ice-cold 0.32 M sucrose using a glass/teflon homogenizer and centrifuged at 1500 x g for 10 min at 4° C. The resultant supernatants are centrifuged at 10,000 x g for 20 min at 4° C. to obtain the P2 pellets. The P2 pellets are resuspended in 200 mM NaCl/50 mM Na-K phosphate pH 7.4 buffer and centrifuged at 10,000 x g for 10 min at 4° C. This washing procedure is repeated twice and the pellets are resuspended in 10 volumes of buffer. Aliquots ([…]) of the membrane suspensions are incubated with 3 nM [^35S]-TBPS and […] aliquots of test drug dissolved in dimethyl sulfoxide (DMSO) (final 0.5%) in the presence of 5 mM GABA. The incubation is brought to a final volume of 1.0 mL with buffer. […] Following a 90 min incubation at room temp, the assays are terminated by filtration through glass fiber filters (Schleicher and Schuell No. 32) using a cell harvester (Brandel) and rinsed three times with ice-cold buffer. Filter bound radioactivity is measured by liquid scintillation spectrometry. Non-linear curve fitting of the overall data for each drug averaged for each concentration is done using Prism (GraphPad). […] The concentration of test compound producing 50% inhibition (IC50) of specific binding and the maximal extent of inhibition (Imax) are determined for the individual experiments with the same model used for the overall data and then the means ± SEM.s of the individual experiments are calculated.
Various compounds are or can be screened to determine their potential as modulators of [^35S]-TBPS binding in vitro. These assays are or can be performed in accordance with the above.

Row | SMILES | IC50 [nM]
1 | CCC[C@@]1(O)CC[C@H]2[C@@H](CC[C@@H]3[C@@H]2CC[C@]2(C)[C@@H]([C@H](C)Cn4nnnc4C)CCC[C@@H]32)C1 [Example 7, (2R,4aS,4bR,6aS,7R,10aS,10bR,12aS)-6a-methyl-7-((S)-1-(5-methyl-1H-tetrazol-1-yl)propan-2-yl)-2-propyloctadecahydrochrysen-2-ol] | ≥ 1000
2 | COC[C@@]1(O)CC[C@@H]2C3CC[C@]4(C)[C@@H]([C@@H](C)NC(=O)c5ccc(F)cc5)CCC[C@H]4[C@@H]3CC[C@@H]2C1 (stereo partly drawn) [Example 44, 4-fluoro-N-((1R)-1-((1S,4aS,4bR,6aR,8R,10aS,12aS)-8-hydroxy-8-(methoxymethyl)-12a-methyloctadecahydrochrysen-1-yl)ethyl)benzamide] | 100 to 1000
3 | C[C@@]1(O)CC[C@H]2[C@H](CC[C@@H]3[C@@H]2CC[C@]2(C)[C@@H](CNC(=O)c4ccccn4)CCC[C@@H]32)C1 [Example 29, N-(((1S,4aS,4bR,6aR,8R,10aS,10bR,12aS)-8-hydroxy-8,12a-dimethyloctadecahydrochrysen-1-yl)methyl)picolinamide] | 100 to 1000
4 | C[C@@H](Nc1ccc(C#N)cc1)[C@H]1CCC[C@H]2[C@@H]3CC[C@@H]4C[C@](C)(O)CC[C@@H]4C3CC[C@]12C (stereo partly drawn) [Example 51, 4-(((1R)-1-((1S,4aS,4bR,6aR,8R,10aS,12aS)-8-hydroxy-8,12a-dimethyloctadecahydrochrysen-1-yl)ethyl)amino)benzonitrile] | < 100
5 | C[C@@H](Nc1cccc(C#N)c1)[C@H]1CCC[C@H]2[C@@H]3CC[C@@H]4C[C@](C)(O)CC[C@@H]4C3CC[C@]12C (stereo partly drawn) [Example 49, 3-(((1R)-1-((1S,4aS,4bR,6aR,8R,10aS,12aS)-8-hydroxy-8,12a-dimethyloctadecahydrochrysen-1-yl)ethyl)amino)benzonitrile] | < 100
6 | CC[C@]12CC[C@@](C)(O)C[C@H]1CC[C@H]1[C@@H]3CCC[C@H](CN(C)C(=O)c4ccccc4)[C@@]3(C)CC[C@@H]12 [Example 37, N-(((1S,4aS,4bS,6aR,8R,10aS,10bS,12aS)-10a-ethyl-8-hydroxy-8,12a-dimethyloctadecahydrochrysen-1-yl)methyl)-N-methylbenzamide] | 100 to 1000
7 | C[C@@]1(O)CC[C@H]2[C@H](CC[C@@H]3[C@@H]2CC[C@]2(C)[C@@H](CNC(=O)c4cccc(C#N)c4)CCC[C@@H]32)C1 [Example 31, 3-cyano-N-(((1S,4aS,4bR,6aR,8R,10aS,10bR,12aS)-8-hydroxy-8,12a-dimethyloctadecahydrochrysen-1-yl)methyl)benzamide] | 100 to 1000
8 | COC[C@@]1(O)CC[C@H]2[C@H](CC[C@@H]3[C@@H]2CC[C@]2(C)[C@@H]([C@H](C)Cn4cc(C#N)cn4)CCC[C@@H]32)C1 [Example 2, 1-((S)-2-((1R,4aS,4bR,6aR,8R,10aS,10bR,12aS)-8-hydroxy-8-(methoxymethyl)-12a-methyloctadecahydrochrysen-1-yl)propyl)-1H-pyrazole-4-carbonitrile] | < 100
9 | CCC[C@@]1(O)CC[C@H]2[C@@H](CC[C@@H]3[C@@H]2CC[C@]2(C)[C@@H]([C@@H](C)Cn4nnnc4C)CCC[C@@H]32)C1 [Example 8, (2R,4aS,4bR,6aS,7R,10aS,10bR,12aS)-6a-methyl-7-((R)-1-(5-methyl-1H-tetrazol-1-yl)propan-2-yl)-2-propyloctadecahydrochrysen-2-ol] | 100 to 1000
10 | Cn1ccc(C(=O)NC[C@H]2CCC[C@H]3[C@@H]4CC[C@@H]5C[C@](C)(O)CC[C@@H]5[C@H]4CC[C@]23C)n1 [Example 27, N-(((1S,4aS,4bR,6aR,8R,10aS,10bR,12aS)-8-hydroxy-8,12a-dimethyloctadecahydrochrysen-1-yl)methyl)-1-methyl-1H-pyrazole-3-carboxamide] | 100 to 1000
11 | CC[C@]12CC[C@@](C)(O)C[C@H]1CC[C@H]1[C@@H]3CCC[C@H](CNS(=O)(=O)c4ccccc4)[C@@]3(C)CC[C@@H]12 [Example 39, N-(((1S,4aS,4bS,6aR,8R,10aS,10bS,12aS)-10a-ethyl-8-hydroxy-8,12a-dimethyloctadecahydrochrysen-1-yl)methyl)benzenesulfonamide] | 100 to 1000
12 | C[C@@]1(O)CC[C@H]2[C@H](CC[C@@H]3[C@@H]2CC[C@]2(C)[C@@H](CNC(=O)c4ccc(C#N)cc4)CCC[C@@H]32)C1 [Example 34, 4-cyano-N-(((1S,4aS,4bR,6aR,8R,10aS,10bR,12aS)-8-hydroxy-8,12a-dimethyloctadecahydrochrysen-1-yl)methyl)benzamide] | 100 to 1000
13 | COC[C@@]1(O)CC[C@@H]2C3CC[C@]4(C)[C@@H]([C@H](C)NC(=O)c5ccc(C#N)cc5)CCC[C@H]4[C@@H]3CC[C@@H]2C1 (stereo partly drawn) [Example 47, 4-cyano-N-((1S)-1-((1S,4aS,4bR,6aR,8R,10aS,12aS)-8-hydroxy-8-(methoxymethyl)-12a-methyloctadecahydrochrysen-1-yl)ethyl)benzamide] | 100 to 1000
14 | CN(C[C@H]1CCC[C@H]2[C@@H]3CC[C@@H]4C[C@](C)(O)CC[C@@H]4[C@H]3CC[C@]12C)S(=O)(=O)c1ccccc1 [Example 26, N-(((1S,4aS,4bR,6aR,8R,10aS,10bR,12aS)-8-hydroxy-8,12a-dimethyloctadecahydrochrysen-1-yl)methyl)-N-methylbenzenesulfonamide] | < 100
15 | C[C@H](Cn1cc(C#N)cn1)[C@H]1CCC[C@H]2[C@@H]3CC[C@@H]4C[C@](C)(O)CC[C@@H]4[C@H]3CC[C@]12C [Example 1, 1-((S)-2-((1R,4aS,4bR,6aR,8R,10aS,10bR,12aS)-8-hydroxy-8,12a-dimethyloctadecahydrochrysen-1-yl)propyl)-1H-pyrazole-4-carbonitrile] | < 100
16 | C[C@H](Nc1cccc(C#N)c1)[C@H]1CCC[C@H]2[C@@H]3CC[C@@H]4C[C@](C)(O)CC[C@@H]4C3CC[C@]12C (stereo partly drawn) [Example 48, 3-(((1S)-1-((1S,4aS,4bR,6aR,8R,10aS,12aS)-8-hydroxy-8,12a-dimethyloctadecahydrochrysen-1-yl)ethyl)amino)benzonitrile] | < 100
17 | C[C@@H](NC(=O)c1ccc(C#N)cc1)[C@H]1CCC[C@H]2[C@@H]3CC[C@@H]4C[C@](C)(O)CC[C@@H]4C3CC[C@]12C (stereo partly drawn) [Example 43, 4-cyano-N-((1R)-1-((1S,4aS,4bR,6aR,8R,10aS,12aS)-8-hydroxy-8,12a-dimethyloctadecahydrochrysen-1-yl)ethyl)benzamide] | 100 to 1000
18 | C[C@H](Cn1cc(C#N)cn1)[C@H]1CC[C@H]2[C@@H]3CC[C@H]4CC[C@](C)(O)CC[C@]4(C)[C@H]3CC[C@]12C [Example 20, 1-((S)-2-((1R,3aS,3bR,5aS,8S,10aS,10bS,12aS)-8-hydroxy-8,10a,12a-trimethyloctadecahydrocyclohepta[a]cyclopenta[f]naphthalen-1-yl)propyl)-1H-pyrazole-4-carbonitrile] | < 100
19 | CC[C@]12CC[C@@](C)(O)C[C@H]1CC[C@H]1[C@@H]3CCC[C@H](CNC(=O)c4ccccc4)[C@@]3(C)CC[C@@H]12 [Example 36, N-(((1S,4aS,4bS,6aR,8R,10aS,10bS,12aS)-10a-ethyl-8-hydroxy-8,12a-dimethyloctadecahydrochrysen-1-yl)methyl)benzamide] | 100 to 1000
20 | CCOC[C@@]1(O)CC[C@@H]2C3CC[C@]4(C)[C@@H]([C@@H](C)NC(=O)c5ccc(F)cc5F)CCC[C@H]4[C@@H]3CC[C@@H]2C1 (stereo partly drawn) [Example 52, N-((1R)-1-((1S,4aS,4bR,6aR,8R,10aS,12aS)-8-(ethoxymethyl)-8-hydroxy-12a-methyloctadecahydrochrysen-1-yl)ethyl)-2,4-difluorobenzamide] | 100 to 1000
21 | COC[C@@]1(O)CC[C@@H]2C3CC[C@]4(C)[C@@H]([C@@H](C)NC(=O)c5ccc(C#N)cc5)CCC[C@H]4[C@@H]3CC[C@@H]2C1 (stereo partly drawn) [Example 46, 4-cyano-N-((1R)-1-((1S,4aS,4bR,6aR,8R,10aS,12aS)-8-hydroxy-8-(methoxymethyl)-12a-methyloctadecahydrochrysen-1-yl)ethyl)benzamide] | 100 to 1000
22 | C[C@@H](Cn1cc(C#N)cn1)[C@H]1CC[C@H]2[C@@H]3CC[C@H]4CC[C@](C)(O)CC[C@]4(C)[C@H]3CC[C@]12C [Example 19, 1-((R)-2-((1R,3aS,3bR,5aS,8S,10aS,10bS,12aS)-8-hydroxy-8,10a,12a-trimethyloctadecahydrocyclohepta[a]cyclopenta[f]naphthalen-1-yl)propyl)-1H-pyrazole-4-carbonitrile] | < 100
